Experiments:
JAWS II dendritic cells = test: LPS-induced TNF-α release by JAWS II dendritic cells (ELISA); type: cell-based, mouse; conditions: for LPS-induced TNF-α secretion, pre-LPS model: peptide 1 or 10 μM 1 hour prior to LPS 75 ng/ml, total 5 hours; for LPS-induced TNF-α, mean values: post-LPS model
Method: JAWS II dendritic cell culture: The JAWS II dendritic cell line is an immortalized cell line derived from bone marrow of C57BL/6 mice (ATCC, Manassas, Va.). The cells were maintained in Alpha-modified minimum essential medium (Sigma, St Louis, Mo.) supplemented with 20% fetal bovine serum (FBS), 4 mM L-glutamine, 100 U/ml penicillin, 100 μg/ml streptomycin, 50 μg/ml gentamicin (Invitrogen, Grand Island, N.Y.) and 5 ng/ml of recombinant murine granulocyte macrophage-colony stimulating factor (Peprotech, Rocky Hill, N.J.). (Awasthi et al., 2005). The culture medium was replaced with fresh medium every 48 h.
The JAWS II dendritic cells (1 million) were treated with SP-A peptides (1 or 10 μM) with or without E. coli derived LPS (75 ng/ml, highly purified, low protein, Calbiochem, CA). In order to observe the anti-inflammatory properties of the SP-A peptides, the cells were treated with peptides for 1 hour prior to addition of LPS (pre-LPS treatment) or after 4 hours incubation with LPS (Post-LPS treatment). The incubation was continued for a total period of 5 hours. Control cells were treated with vehicle, LPS (75 ng/ml), and/or SP-A peptides (1 and 10 μM) for a period of 5 hours. The cell-free supernatants were collected and stored at −80° C. for further analysis.
Cytokine (TNF-α) measurement: The TNF-α levels were measured in cell-free supernatants of JAWS II dendritic cells treated with LPS with or without SP-A peptides by enzyme linked immunosorbent assay (ELISA) as described earlier (Awasthi and Cox, 2003).

[1] = system: primary adult baboon lung DCs and fetal baboon lung DC-precursor cells; test: Phagocytosis of pHrodo-labeled E. coli bioparticles by primary baboon lung DCs / fetal DC-precursor cells; type: cell-based; conditions: SP-A 2 μM, TLR4-MD2 0.3 μM
Method: Freshly collected lobe of the lung or whole lung samples of adult and fetal baboons were transported on ice in RPMI 1640 medium containing 2 mM glutamine, 1 mM HEPES, 10 μg/ml gentamicin, 100 U/ml penicillin, 100 μg/ml streptomycin and 10% FBS. After a mild mechanical disruption, the single cell suspension was seeded in a tissue culture flask (Nalge-Nunc International Corp, NY) at a density of 30-50×10^6 leukocytes/175 cm^2 flask in RPMI 1640 medium containing 2 mM glutamine, 1 mM HEPES, 10 μg/ml gentamicin, 100 U/ml penicillin, 100 μg/ml streptomycin and 10% FBS. The light-density DC-populations were harvested using OptiPrep cell-separation solution (density 1.32 g/ml, Accurate Chemicals, NY) (Awasthi and Cooper, 2006; Awasthi et al., 2009). The immunophenotype and basic characteristics of the lung DC-population isolated from fetal and adult baboons have been described earlier (Awasthi et al., 2009). Here, first the immunophenotype of KG-1-derived DCs and fetal baboon lung DC-precursors or adult baboon lung DCs were compared by flow cytometry. Briefly, cells were suspended in Dulbecco's phosphate buffered saline (DPBS) containing 1% FBS and 0.09% sodium azide and incubated with fluorochrome-conjugated antibodies to HLA-DP, DQ, DR, CD11c, CD40, CD80, CD86 (typical DC-markers) as described earlier.
(§1) After confirming that the fluorescence is of phagocytosed bioparticles, comprehensive experiments were performed in presence and absence of effector molecules (SP-A and TLR4-MD2 proteins). […] The fluorescence readings were taken at 550 nm excitation and 600 nm emission wavelengths using SpectraMax M2 spectrofluorometer (Molecular Devices, CA).
(§2) The phagocytosis index was calculated by subtracting the average fluorescence intensity of the reaction with bioparticles alone from the control (basal without any effector molecules) and experimental wells. Finally, the percent effect was calculated using the following formula: % effect=(Net experimental phagocytosis/Net basal phagocytosis)×100%

[2] = system: primary adult baboon lung DCs and fetal baboon lung DC-precursor cells; test: TNF-α secretion against E. coli by baboon lung DCs (ELISA); type: cell-based; conditions: 3 hours phagocytosis reaction; protein added alone
Method: After confirming that the fluorescence is of phagocytosed bioparticles, comprehensive experiments were performed in presence and absence of effector molecules (SP-A and TLR4-MD2 proteins). The cells were pulsed with purified, native baboon lung SP-A and recombinant human TLR4-MD2 or MD2 proteins (RnD Systems, MN) for an hour prior to phagocytosis assay with pHrodo-conjugated, heat-killed E. coli K12 bioparticles (Invitrogen-Molecular Probes, CA). MD2 protein was also included, because SP-A is known to interact with MD2, and it was questioned if MD2 can influence the immune functions of DC-population. The assay was performed in serum-free Opti-MEM medium (Invitrogen, CA), as described by the manufacturer (Invitrogen-Molecular Probes, CA). The assay mixtures were incubated for another 3 hours at 37° C. in 5% CO2 incubator. The fluorescence readings were taken at 550 nm excitation and 600 nm emission wavelengths using SpectraMax M2 spectrofluorometer (Molecular Devices, CA).
Cytokine (TNF-α) measurement: The TNF-α levels were measured in cell-free supernatants by enzyme linked immunosorbent assay (ELISA) using a commercially available kit (eBioscience, CA), as per the manufacturer's instructions. Briefly, the microwells of a 96 well plate were coated with diluted purified anti-human TNF-α antibody. The wells were washed, and nonspecific sites were blocked. Diluted recombinant human TNF-α (7.8-500 pg/ml standard) and cell-free-supernatant (1:10) were added to the antibody-coated wells, and the plate was incubated overnight at 4° C. The next day, the plate was washed and incubated with biotin-conjugated anti-human TNF-α antibody followed by avidin-horseradish peroxidase and substrate solution. The reaction was stopped by adding 2 N H2SO4 and read at 450 nm (Molecular Devices, CA).

KG-1-derived DCs = test: Phagocytosis of pHrodo-labeled E. coli bioparticles by KG-1-derived DCs; type: cell-based, human; conditions: MD2 alone 0.02-0.2 μM
From the text: Phagocytosis assay: In this Example, pHrodo-conjugated, heat-killed E. coli K12 (encapsulated) bioparticles (Invitrogen-Molecular Probes, CA) were employed. The pHrodo-fluorescent label offers an advantage over other conventional methods, in that it fluoresces only in acidic conditions (i.e., after the bioparticles are taken inside the intracellular lysosomes) (Invitrogen-Molecular Probes, CA). To ensure that the fluorescence relates to phagocytosed pHrodo-conjugated E. coli bioparticles only, the phagocytosis reaction mix was imaged by confocal microscopy. […]
as §1, §2

Molecule: SPA2: 20-mer synthetic peptide derived from the C-terminal Carbohydrate Recognition Domain of human SP-A (PAGRGKEQCVEMYTDGQWND; listed as Homo sapiens)
- LPS-induced TNF-α secretion, pre-LPS model (JAWS II dendritic cells): slight increase

Molecule: SPA3: 20-mer synthetic peptide derived from the C-terminal Carbohydrate Recognition Domain of human SP-A (VNYTNWYRGEPAGRGKEQCV; listed as Homo sapiens)
- LPS-induced TNF-α secretion, pre-LPS model (JAWS II dendritic cells): slight increase

Molecule: SPA5: 20-mer synthetic peptide from C-terminal CRD of human SP-A; contains the first 10 amino acids of the SPA4 peptide (YVGLTEGPSPGDFRYSDGTP; listed as Homo sapiens)
- secretion of TNF-α, post-LPS model (JAWS II dendritic cells; peptide added after 4 hours LPS 75 ng/ml, both 1 and 10 μM): inhibited the secretion of TNF-α
- LPS-induced TNF-α, mean values (JAWS II dendritic cells; 1 μM peptide): 8284 pg/mL
- LPS-induced TNF-α, mean values (JAWS II dendritic cells; 10 μM peptide): 6319 pg/mL

Molecule: SPA7: 20-mer synthetic peptide derived from the C-terminal Carbohydrate Recognition Domain of human SP-A (SLQGSIMTVGEKVFSSNGQS; listed as Homo sapiens)
- LPS-induced TNF-α secretion, pre-LPS model (JAWS II dendritic cells): slight increase

Molecule: TLR4-MD2: soluble mixture of recombinant human TLR4 extracellular domain and MD2 proteins (R&D Systems) [reference compound]
- phagocytic uptake of E. coli [1]: increased
- secretion of TNF-α by DCs in response to E. coli [2]: increased the TNF-α secretion significantly

B1: MD2: recombinant human MD-2 protein, adaptor molecule for TLR4 (R&D Systems) (protein, listed as Homo sapiens)
chain: MLPFLFFSTLFSSIFTEAQKQYWVCNSSDASISYTYCDKMQYPISINVNPCIELKGSKGLLHIFYIPRRDLKQLYFNLYITVNTMNLPKRKEVICRGSDDDYSFCRALKGETVNTTISFSFKGIKFSKGKYKCVVEAISGSPEEMLFCLEFVILHQPNSN
- effect on phagocytosis of E. coli bioparticles (KG-1-derived DCs): did not affect the phagocytosis

Source: patent US8623832B2, “Peptide compositions that bind TLR-4” (The Board of Regents of the University of Oklahoma, priority 2011, dated 2014)
